Source: ChEMBL document CHEMBL1201862, “PubChem BioAssay data set” (2004)
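Following 48 hours of exposure in 96-well plates, responses at five concentrations were used to interpolate endpoints linearly. GI50 marks 50% less growth.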 Calls of active or inactive are those of the source. Rule as the data show it: active = GI50 up to about 1.1 µM and inactive = higher.

Columns and labels:
Test in all cases: growth of human tumour cells (NCI), 48 h
KM-20L2 = system: KM-20L2
NCI-H460 = system: NCI-H460
SNB-78 = system: SNB-78
NCI-H23 = system: NCI-H23
Malme-3M = system: Malme-3M
OVCAR-8 = system: OVCAR-8
DLD-1 = system: DLD-1
HT-29 = system: HT-29
A549 = system: A549
CCRF-CEM = system: CCRF-CEM
RXF 393 = system: RXF 393
XF498 = system: XF498
OVCAR-5 = system: OVCAR-5
UO-31 = system: UO-31
M14 = system: M14
KM12 = system: KM12
M19-MEL = system: M19-MEL
U-251 = system: U-251
SK-OV-3 = system: SK-OV-3
HOP-92 = system: HOP-92
SF-268 = system: SF-268
HCC 2998 = system: HCC 2998
COLO 205 = system: COLO 205
OVCAR-4 = system: OVCAR-4
HCT-15 = system: HCT-15
TK-10 = system: TK-10
UACC-257 = system: UACC-257
LXFL 529 = system: LXFL 529
MOLT-4 = system: MOLT-4
SNB-19 = system: SNB-19
SK-MEL-28 = system: SK-MEL-28
ACHN = system: ACHN
HOP-62 = system: HOP-62
HCT-116 = system: HCT-116
SW-620 = system: SW-620
LOX IMVI = system: LOX IMVI
SNB-75 = system: SNB-75
HOP-18 = system: HOP-18
NCI-H522 = system: NCI-H522
DMS-114 = system: DMS-114
SF-539 = system: SF-539
OVCAR-3 = system: OVCAR-3
A498 = system: A498
HL-60 = system: HL-60
UACC-62 = system: UACC-62
SN12C = system: SN12C
CAKI-1 = system: CAKI-1
SK-MEL-5 = system: SK-MEL-5
IGROV-1 = system: IGROV-1
SF-295 = system: SF-295
SK-MEL-2 = system: SK-MEL-2
NCI-H226 = system: NCI-H226
DMS-273 = system: DMS-273
EKVX = system: EKVX
SR = system: SR
RPMI-8226 = system: RPMI-8226
K562 = system: K562
786-0 = system: 786-0

Compound: Cc1ccc(C)c(C(=O)CC2OC(O)C(Cl)C2Cl)c1 (stereo not drawn)
- GI50 (KM-20L2): > 100 µM (inactive)
- GI50 (NCI-H460): > 100 µM (inactive)
- GI50 (SNB-78): 60.1 µM (inactive)
- GI50 (NCI-H23): > 100 µM (inactive)
- GI50 (Malme-3M): 67.5 µM (inactive)
- GI50 (OVCAR-8): 18.3 µM (inactive)
- GI50 (DLD-1): 17.1 µM (inactive)
- GI50 (HT-29): > 100 µM (inactive)
- GI50 (A549): > 100 µM (inactive)
- GI50 (CCRF-CEM): 41.1 µM (inactive)
- GI50 (RXF 393): 26.2 µM (inactive)
- GI50 (XF498): > 100 µM (inactive)
- GI50 (OVCAR-5): > 100 µM (inactive)
- GI50 (UO-31): > 100 µM (inactive)
- GI50 (M14): > 100 µM (inactive)
- GI50 (KM12): > 100 µM (inactive)
- GI50 (M19-MEL): 72.3 µM (inactive)
- GI50 (U-251): > 100 µM (inactive)
- GI50 (SK-OV-3): > 100 µM (inactive)
- GI50 (HOP-92): 30.6 µM (inactive)
- GI50 (SF-268): > 100 µM (inactive)
- GI50 (HCC 2998): > 100 µM (inactive)
- GI50 (COLO 205): > 100 µM (inactive)
- GI50 (OVCAR-4): > 100 µM (inactive)
- GI50 (HCT-15): 34.8 µM
- GI50 (TK-10): > 100 µM (inactive)
- GI50 (UACC-257): > 100 µM (inactive)
- GI50 (LXFL 529): 17.4 µM (inactive)
- GI50 (MOLT-4): 8.65 µM (inactive)
- GI50 (SNB-19): > 100 µM (inactive)
- GI50 (SK-MEL-28): 39.5 µM (inactive)
- GI50 (ACHN): 42.5 µM (inactive)
- GI50 (HOP-62): > 100 µM (inactive)
- GI50 (HCT-116): 29.7 µM (inactive)
- GI50 (SW-620): 18.7 µM (inactive)
- GI50 (LOX IMVI): 18.9 µM (inactive)
- GI50 (SNB-75): 52 µM (inactive)
- GI50 (HOP-18): > 100 µM (inactive)
- GI50 (NCI-H522): 15.6 µM (inactive)
- GI50 (DMS-114): > 100 µM (inactive)
- GI50 (SF-539): 24 µM (inactive)
- GI50 (OVCAR-3): 36.6 µM (inactive)
- GI50 (A498): > 100 µM (inactive)
- GI50 (HL-60): 20.6 µM (inactive)
- GI50 (UACC-62): 57.3 µM (inactive)
- GI50 (SN12C): 5.7 µM (inactive)
- GI50 (CAKI-1): 30.4 µM (inactive)
- GI50 (SK-MEL-5): > 100 µM (inactive)
- GI50 (IGROV-1): > 100 µM (inactive)
- GI50 (SF-295): > 100 µM (inactive)
- GI50 (SK-MEL-2): 84.5 µM (inactive)
- GI50 (NCI-H226): > 100 µM (inactive)
- GI50 (DMS-273): 63.1 µM (inactive)
- GI50 (EKVX): > 100 µM (inactive)
- GI50 (SR): 44 µM (inactive)
- GI50 (RPMI-8226): 12.4 µM (inactive)
- GI50 (K562): 32.5 µM (inactive)

Compound: COc1cc(OC)cc(-c2cc(O)c3cc4c(cc3n2)OCO4)c1
- GI50 (KM-20L2): 0.217 µM (active)
- GI50 (NCI-H460): 0.26 µM (active)
- GI50 (SNB-78): 0.295 µM (active)
- GI50 (NCI-H23): 0.351 µM (active)
- GI50 (Malme-3M): 0.426 µM (active)
- GI50 (OVCAR-8): 0.395 µM (active)
- GI50 (DLD-1): 0.311 µM (active)
- GI50 (HT-29): 0.295 µM (active)
- GI50 (A549): 0.428 µM (active)
- GI50 (CCRF-CEM): 0.206 µM (active)
- GI50 (XF498): 0.152 µM (active)
- GI50 (OVCAR-5): 4.35 µM (inactive)
- GI50 (UO-31): 1.22 µM (inactive)
- GI50 (M14): 0.239 µM (active)
- GI50 (KM12): 0.17 µM (active)
- GI50 (M19-MEL): 0.321 µM (active)
- GI50 (U-251): 0.221 µM (active)
- GI50 (SK-OV-3): 0.27 µM (active)
- GI50 (HOP-92): 0.314 µM (active)
- GI50 (SF-268): 0.54 µM (active)
- GI50 (HCC 2998): 0.225 µM (active)
- GI50 (COLO 205): 0.192 µM (active)
- GI50 (OVCAR-4): 17.1 µM (inactive)
- GI50 (HCT-15): 0.263 µM
- GI50 (TK-10): 1.74 µM (inactive)
- GI50 (UACC-257): 1.96 µM (inactive)
- GI50 (LXFL 529): 0.211 µM (active)
- GI50 (MOLT-4): 0.364 µM (active)
- GI50 (SNB-19): 0.8 µM (active)
- GI50 (SK-MEL-28): 0.194 µM (active)
- GI50 (ACHN): 0.321 µM (active)
- GI50 (HOP-62): 0.486 µM (active)
- GI50 (HCT-116): 0.169 µM (active)
- GI50 (SW-620): 0.203 µM (active)
- GI50 (LOX IMVI): 0.367 µM (active)
- GI50 (SNB-75): 2.32 µM (inactive)
- GI50 (HOP-18): 16.3 µM (inactive)
- GI50 (NCI-H522): 0.139 µM (active)
- GI50 (DMS-114): 0.218 µM (active)
- GI50 (SF-539): 0.173 µM (active)
- GI50 (OVCAR-3): 0.136 µM (active)
- GI50 (HL-60): 0.162 µM (active)
- GI50 (UACC-62): 0.209 µM (active)
- GI50 (SN12C): 0.367 µM (active)
- GI50 (CAKI-1): 0.309 µM (active)
- GI50 (SK-MEL-5): 0.163 µM (active)
- GI50 (IGROV-1): 0.389 µM (active)
- GI50 (SF-295): 0.2 µM (active)
- GI50 (SK-MEL-2): 0.165 µM (active)
- GI50 (NCI-H226): 0.251 µM (active)
- GI50 (DMS-273): 0.306 µM (active)
- GI50 (786-0): 0.348 µM (active)
- GI50 (EKVX): 12.6 µM (inactive)
- GI50 (SR): 0.199 µM (active)
- GI50 (RPMI-8226): 0.389 µM (active)
- GI50 (K562): 0.15 µM (active)
